“Also recorded” adds a separate entry of the source. Peptide text beside a SMILES is read from it. * marks the point of attachment. For = O=C*
Tests used:
[1] = tested on: vomeronasal sensory neurons (VSNs); assay: VNO whole-mount en face confocal Ca2+ imaging of VSN dendritic knobs (Fig. 4, 5); type: cell-based, mouse; design: key to Ca2+ response of f-MKKFRW-responsive VSN knobs / Fpeak: normalised to knob resting fluorescence F0 before stimulation; conditions: for Fpeak / Ca2+ response of f-MKKFRW-responsive VSN knobs: Fig. 4h; for Fpeak: mean of individual knobs, n = 103 f-MKKFRW, 21 f-MKKFRWVVL, 68 MKKFRW, 26 f-MGFFIS, 63 PUM; for Ca2+ responses in VSNs, in words: VNE of adult B6 mice, f-MKKFRW 1 µM; for Ca2+ response of f-MKKFRW-responsive VSN knobs: adult B6 mice, mean ± s.d., N = 103 (f-MKKFRW), 21 (f-MKKFRWVVL), 68 (MKKFRW), 26 (f-MGFFIS), 63 (PUM)
Text: Mice (6–20 week old, either sex) were euthanized by CO2 inhalation according to institutional guidelines. After decapitation, the skin was removed from the skull, the mandible was cut off and the cranium was opened by a sagittal cut, 1–2-mm right-lateral in parallel to the midline. The palate and the right incisor were removed and the hemisected skull was mounted in low-melting agarose (4%). The bony capsule of the VNO was opened with fine forceps and the nonsensory epithelium was stripped off. Tissue and cell debris were gently washed off, and the en face preparation was superfused with physiological S1 solution (120 mM NaCl, 25 mM NaHCO3, 5 mM KCl, 1 mM MgSO4, 1 mM CaCl2, 10 mM glucose, 5 mM BES, pH 7.3) saturated with carbogen (95% O2, 5% CO2).
Loading of the VNE with Rhod-2/AM (5–15 µM, 1 h) was performed in S1 solution under carbogen atmosphere at RT. Images were taken with an upright confocal laser scanning microscope (Leica TCS SP5 II, 20x water immersion objective HCX APO L20x/1.0w) equipped with Ar and He/Ne lasers. GFP was excited at 488 nm, Venus at 514 nm and Rhod-2 at 543 nm. Emission was measured at 490–520 nm (GFP), 520–600 nm (Venus) and 560–680 nm (Rhod-2). To minimise interference between Venus and Rhod-2 fluorescence, images were taken sequentially (sample interval per image, 3–4 s). Peptide stimuli were applied to the VNE surface with a local perfusion system which, when positioned close to the anterior end of the VNO, produced a continuous solution stream from rostral to caudal along the VNO axis. Data analysis was performed with the open source software ImageJ (NIH). Ca^2+ responses of individual dendritic knobs were normalised to the knob resting fluorescence level obtained before stimulation (ratio Fx/F0, Fx = actual fluorescence; F0 = mean fluorescence of 3–5 images before ligand application). Mapping was performed by superimposing Ca^2+ peak images onto images showing intrinsic fluorescence for specific markers.
Predator urine mix was composed of urine from mountain lion, coyote, bobcat, fox and marten (at equal volume ratios), purchased from Predatorpee (USA) and Kieferle (Germany). The fMet peptides were as described above. Stimuli were applied in S2 solution (140 mM NaCl, 5 mM KCl, 10 mM HEPES, 1 mM CaCl2, 1 mM MgCl2, 10 mM glucose, pH 7.3 with NaOH).

mouse Fpr3 (Fpr-rs1) = molecular target: T1, mouse Fpr3 (Fpr-rs1) (Mus musculus, UniProt O08790); assay: Concentration-response Ca2+ imaging of Fpr3-transfected HEK293T cells (Fig. 2f, h, j); type: cell-based; conditions: Ca2+ responses of Fpr3-transfected HEK293T; Fluo-4/AM, FLIPR; buffer C1 pH 7.2; Fig. 2f, h, j
T1 construct: expressed in transfected cells; host or cells: HEK293T (DSMZ # ACC-635), transient transfection with jetPEI
T1 sequence (O08790 1-351): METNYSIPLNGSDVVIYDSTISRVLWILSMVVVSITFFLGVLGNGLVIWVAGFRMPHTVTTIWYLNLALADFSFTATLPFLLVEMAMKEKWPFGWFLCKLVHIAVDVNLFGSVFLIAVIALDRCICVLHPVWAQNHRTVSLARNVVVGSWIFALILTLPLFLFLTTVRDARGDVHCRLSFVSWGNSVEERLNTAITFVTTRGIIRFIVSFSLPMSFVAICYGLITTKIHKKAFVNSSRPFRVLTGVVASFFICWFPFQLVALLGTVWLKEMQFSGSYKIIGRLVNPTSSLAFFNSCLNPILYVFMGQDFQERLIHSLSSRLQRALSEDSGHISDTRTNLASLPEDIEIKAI
Procedure: An Fpr3 gene subcloned from genomic DNA of C57BL/6J mice into pcDNA3.1 (Invitrogen) was used in heterologous experiments[21],[80]. HEK293T (DSMZ # ACC-635) cells were seeded at 20–30% confluence on poly-D-lysine-coated (10 µg/ml in PBS) black 96-well µCLEAR-Plates (Greiner Bio-One). Cells were transfected 24 h later using jetPEI™ (Polyplus-transfection SA) according to the manufacturer’s protocol for 96-well transfections. For Ca^2+ imaging experiments, 0.125 µg of DNA plasmid encoding Fpr3 were cotransfected with equal amounts of a plasmid encoding Gα16, a promiscuous G protein α-subunit. Ca^2+ signals to agonist stimulation were recorded 48 h post transfection using the Ca^2+ indicator dye Fluo-4/AM (Molecular Probes) and a fluorescence imaging plate reader (FLIPR) system (Molecular Devices).
We used custom-made peptides with a length of 6–21 amino acids to screen for agonists. Sequences of fMet peptides were designed according to motifs present at the N-termini of 15,125 specific bacterial proteins as annotated in UniProt. Peptides were chemically synthesised, purified, and verified by mass spectroscopy (MALDI-TOF) by commercial suppliers. […] Source, sequence and purity of each peptide are listed in Supplementary Data 1. Lyophilised peptides were routinely dissolved in the Ca^2+ imaging assay buffer C1 (130 mM NaCl, 10 mM HEPES, 5 mM KCl, 2 mM CaCl2, 5 mM glucose, pH 7.2) as 0.2–1 mM stock solutions and kept in small aliquots at −20 °C until use.

mouse Fpr3 = conditions: cited from earlier work
Procedure: We estimate the fraction of knobs responding to f-MKKFRW as ~0.15%, which is similar to the fraction of cells in the VNE that express Fpr3[30]. Strikingly, the sensitivity and sequence-selectivity profile of these responses was nearly identical to the results that we obtained for heterologously expressed Fpr3. The detection threshold of native VSNs for f-MKKFRW was ≤0.1 µM (Fig. 4f), virtually the same as for Fpr3-expres ... || Given the importance of the olfactory system in a variety of behavioural avoidance and defence mechanisms[14],[62],[63], we reasoned that in vivo detection of MgrB peptide may evoke an avoidance reaction in mice. We devised a behavioural assay[14],[60] in order to determine whether direct nasal contact with MgrB peptide evokes unconditioned, innate avoidance (Fig. 8a and Methods). […] (Fig ... || We used custom-made peptides with a length of 6–21 amino acids to screen for agonists. Sequences of fMet peptides were designed according to motifs present at the N-termini of 15,125 specific bacterial proteins as annotated in UniProt. Peptides were chemically synthesised, purified, and verified by mass spectroscopy (MALDI-TOF) by commercial suppliers. Purity of all peptides was >95%. Source, sequence and purity of each peptide are listed in Supplementary Data 1. Lyophilised peptides were routinely dissolved in the Ca^2+ imaging assay buffer C1 (130 mM NaCl, 10 mM HEPES, 5 mM KCl, 2 mM CaCl2, ...

Compound | fraction of knobs responding ([1]; 1 µM, VNE, B6 mice) | Ca2+ responses in Venus+ (B2m) vs GFP+ (NP2) knobs, in words ([1]; 1 µM, heterozygous NP2∆ or B2m-Venus mice, Fig. 5g, h) | Fpeak [1] | Ca2+ responses in VSNs, in words [1] | Ca2+ response of f-MKKFRW-responsive VSN knobs [1] | detection threshold for evoked Ca2+ responses in VSNs ([1]; native VSNs of adult B6 mice, Rhod-2/AM, Fig. 4f) | EC50 (mouse Fpr3 (Fpr-rs1)) | activation of heterologously expressed Fpr3, in words (mouse Fpr3)
CSCC[C@H](NC=O)C(=O)N[C@@H](CCCCN)C(=O)N[C@@H](CCCCN)C(=O)N[C@@H](Cc1ccccc1)C(=O)N[C@@H](CCCNC(=N)N)C(=O)N[C@@H](Cc1c[nH]c2ccccc12)C(=O)O [f-MKKFRW] (For-MKKFRW-OH) | ~ 0.15% | Responses occurred in Venus+ but not in GFP+ knobs | 0.71 | robust, transient Ca^2+ elevations in a small subset of VSNs | 0.71 ± 0.44 | ≤ 0.1 µM | 7.7 µM | 
f-MGFFIS [bacterial signal peptide fragment] |  |  | 0.00 | failed to evoke Ca^2+ responses in VSNs | 0.00 ± 0.00 |  |  | not Fpr3; also recorded: failed to activate heterologously expressed Fpr3

From PMC6814738, “Bacterial MgrB peptide activates chemoreceptor Fpr3 in mouse accessory olfactory system and drives avoidance behaviour” (Nature Communications, 2019)
